Patent US4762846A (priority 1986, dated 1988)
Where “and” joins values, the source holds several entries; their conditions need not be identical. Identical values can stand only once. Entries after “also recorded” stand apart in the source; their conditions may differ. Counter-ions that a name gives are not always drawn. Like-named read-outs stand apart in the source and are kept apart here.

Key:
[1] = system: cerebellar Purkinje neurons; settings: local administration, denervation or antipsychotics; cited from earlier work
[2] = target: phencyclidine receptors ([3H]PCP binding site); design: species or system rat
[3] = system: muscarinic receptors; format: binding, rat
[4] = system: benzodiazepine receptors ([3H]diazepam site); format: binding, rat
[5] = Water solubility of Metaphit salts; settings: relative to the hydrochloride
[6] = system: Phencyclidine Receptor; format: binding, rat; settings: for IC50: read-out: Apparent IC50
[7] = target: PCP receptors; assay: Scatchard analysis of [3H]TCP binding after treatment with affinity ligand; design: species or system rat
[8] = cited from earlier work
[9] = system: Phencyclidine Receptor; format: binding, rat
[10] = target: T1, opioid receptors (Rattus norvegicus, UniProt P33535); settings: cited from earlier work
T1 construct: from tissue; host or cells: brain tissue (rat, inferred from the sister test)
T1 sequence (P33535 whole entry): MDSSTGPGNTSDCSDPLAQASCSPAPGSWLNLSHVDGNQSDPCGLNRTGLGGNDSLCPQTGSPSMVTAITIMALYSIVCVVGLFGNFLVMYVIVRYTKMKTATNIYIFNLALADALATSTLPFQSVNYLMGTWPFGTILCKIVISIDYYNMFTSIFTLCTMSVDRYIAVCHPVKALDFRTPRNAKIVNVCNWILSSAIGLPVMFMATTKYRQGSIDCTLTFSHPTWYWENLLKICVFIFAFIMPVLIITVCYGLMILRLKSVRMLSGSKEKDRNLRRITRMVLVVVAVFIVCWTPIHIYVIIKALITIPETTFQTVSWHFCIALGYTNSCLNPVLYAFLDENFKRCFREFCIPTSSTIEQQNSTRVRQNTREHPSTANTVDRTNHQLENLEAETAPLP

[11] = target: PCP receptors; assay: [3H]PCP binding (Scatchard) in brain homogenates of rats pretreated i.c.v. with Metaphit or saline; design: species or system rat (male Sprague-Dawley); settings: saline-pretreated rats; mean ±S.E.

**Q.** Which “effect on PCP/PCMP-induced depressions of cerebellar Purkinje neurons” value [1] does the source give for lithium here?
**A.** The value was “strongly antagonized PCP-induced depressions”.

**Q.** With `CC(C)NC1(c2ccccc2)CCCCC1` [PCI] as the compound, how does the IC50 ([2]; read-out: apparent IC50) read?
**A.** The IC50 was 50 nM.

**Q.** With `CCNC1(c2ccccc2)CCCCC1` [PCE, (1-Phenylcyclohexyl)ethylamine] as the compound, how does the IC50 ([2]; read-out: apparent IC50) read?
**A.** Its IC50 is 240 nM.

**Q.** With `NCCc1cc(O)c(O)cc1O` [6-OHDA] as the compound, how does the “effect on PCP/PCMP-induced depressions of cerebellar Purkinje neurons” value [1] read?
**A.** Its value is “completely eliminates stereospecific Purkinje cell responses to PCMP”.

**Q.** With `S=C=Nc1cccc(C2(N3CCCCC3)CCCCC2)c1` [Metaphit, 1-[1-(3-isothiocyanatophenyl)cyclohexyl]piperidine] as the compound, how does the “Maximum % Alkylation by 10 uM Metaphit” value [3] read?
**A.** The value was 0%.

**Q.** What about the “irreversible loss of QNB binding” value [3] of the same compound?
**A.** Its value is “without a significant loss of QNB binding”.

**Q.** What about the “Maximum % Alkylation by 10 uM Metaphit” value [4] of the same compound?
**A.** The value was 0%.

**Q.** For `S=C=Nc1cccc(C2(N3CCCCC3)CCCCC2)c1` [methanesulfonate salt], which solubility in water [5] is on record?
**A.** The solubility in water was “considerably more soluble in water than the hydrochloride”.

**Q.** With `c1csc(C2(N3CCCCC3)CCCCC2)c1` [[3H]-TCP] as the compound, how does the “Non-specific binding of radioligand” value [6] read?
**A.** Its value is 10%.

**Q.** What about the Kd ([7]; control tissue, [3H]-TCP 1.0 to 150 nM, read-out: Kd for control ([3H]-TCP)) of the same compound?
**A.** Its Kd is 15 nM.

**Q.** Which IC50 [6] does the source give for `CCNC1(c2cccc(N=C=S)c2)CCCCC1` [Ethylphit] here?
**A.** Its IC50 is 3840 nM.

**Q.** For `CNC1(c2ccccc2Cl)CCCCC1=O` (stereo not drawn) [Ketamine], which “psychotomimetic effects relative to PCP” value ([8]; in vivo) is on record?
**A.** Its value is “psychotomimetic effects that do not occur as frequently as with PCP”.

**Q.** With `c1ccc(C2(N3CCCCC3)CCCCC2)cc1` [PCP, 1-(1-phenylcyclohexyl)piperidine] as the compound, how does the IC50 ([2]; read-out: IC50) read?
**A.** The IC50 was 75 nM and 70 nM.

**Q.** And the IC50 ([2]; read-out: apparent IC50)?
**A.** The IC50 was 150 nM.

**Q.** What about the IC50 [3] of the same compound?
**A.** Its IC50 is 25000 nM.

**Q.** What about the IC50 [4] of the same compound?
**A.** The IC50 was greater than 200000 nM.

**Q.** What about the IC50 [6] of the same compound?
**A.** The IC50 was 70 nM.

**Q.** What about the washout from homogenate ([9]; 10 uM PCP alone) of the same compound?
**A.** The washout from homogenate was “completely washed out of the homogenate”.

**Q.** And the IC50 [10]?
**A.** The IC50 was 13000 nM.

**Q.** And the “duration of psychological side effects” value ([8]; use as anesthetic)?
**A.** Its value is “more than 12 hours”.

**Q.** Which “potency relative to PCI” value [2] does the source give for `c1csc(C2(N3CCCCC3)CCCCC2)c1` [TCP] here?
**A.** The value was “twice as potent as PCI”.

**Q.** And the “affinity for the PCP receptor relative to PCP” value [6]?
**A.** Its value is “considerably higher affinity for the PCP receptor than PCP”.

**Q.** And the IC50 [6]?
**A.** The IC50 was 20 nM.

**Q.** And the washout from homogenate [9]?
**A.** The washout from homogenate was “completely washed out of the homogenate”.

**Q.** With `CC(C)NC1(c2cccc(N=C=S)c2)CCCCC1` [Isopropylphit] as the compound, how does the IC50 [6] read?
**A.** The IC50 was 2700 nM.

**Q.** With `S=C=Nc1csc(C2(N3CCCCC3)CCCCC2)c1` [Thiophit] as the compound, how does the “affinity for the PCP receptor relative to other ligands” value [6] read?
**A.** The value was “much higher affinity for the PCP receptors; also recorded: considerably higher affinity for the PCP receptor than either of the other two affinity ligands”.

**Q.** And the “potency relative to metaphit” value [6]?
**A.** The value was “three times as potent as metaphit”.

**Q.** What about the IC50 [6] of the same compound?
**A.** The IC50 was 900 nM.

**Q.** And the “Bmax ([3H]-TCP) in treated tissue” value ([7]; 10 μM affinity ligand)?
**A.** The value was 700 fmol/mg protein.

**Q.** What about the “reduction in Bmax” value ([7]; 10 μM affinity ligand) of the same compound?
**A.** Its value is roughly 30%.

**Q.** And the Kd ([7]; 10 μM affinity ligand, value is for [3H]-TCP (1.0 to 150 nM), read-out: Kd ([3H]-TCP) in treated tissue)?
**A.** Its Kd is 27 nM.

**Q.** What does the source list for `c1ccc(C2(N3CCCCC3)CCCCC2)cc1` [[3H]-PCP]?
**A.** Kd [11]: 237 ± 8 nM; Non-specific binding of radioligand ([2]; [3H]-PCP): 30 % of the total binding
